According to US12543736B2, “Herbicidal compositions comprising mesotrione” (BASF SE, priority 2024, dated 2026):

Legend:
Assay type in all cases: in vivo
Zea mays = experiment: Example 3 post-emergence field trial, ZEAMX
Experimental: (§1) In the examples below, using the method of S. R. Colby (1967) “Calculating synergistic and antagonistic responses of herbicide combinations”, Weeds 15, p. 22ff., the value E, which is expected if the activity of the individual active compounds is only additive, was calculated: [formula] • where • X=percent activity using active herbicide A at an application rate a; • Y=percent activity using active herbicide B (e.g. mesotrione) at an application rate b; • E=expected activity (in %) by A+B at application rates a+b. If the value found experimentally is higher than the value E calculated according to Colby, a synergistic effect is present. Evaluation was carried out using a scale from 0 to 100. 100 means no emergence of the plants, or complete destruction of at least the above-ground parts, and 0 means no damage or normal course of growth. A good herbicidal activity is given at values of at least 70, and very good herbicidal activity is given at values of at least 85. Post-Emergence Application of Herbicide A-1 (A-1) and Mesotrione (B) in Field Trials Herbicide A-1 (342 g/l) and mesotrione (100 g/l) were, together with addition of 0.5 v/v % MSO (methylated sed oil) as adjuvant, formulated in water as distribution medium (water volume 200 l/ha) and sprayed with commercial flat fan nozzles.

Lolium multiflorum = experiment: Example 3 post-emergence field trial, LOLMU; conditions: height 20-25 cm
Experimental: as §1

Commelina benghalensis = experiment: Example 4 post-emergence application A-1, B and C-19, COMBE; conditions: growth stage 13, 21 DAT, g ai/ha: A-1 1, B 50, C-19 30
Experimental: In the examples below, using the method of S. R. Colby (1967) “Calculating synergistic and antagonistic responses of herbicide combinations”, Weeds 15, p. 22ff., the value E, which is expected if the activity of the individual active compounds is only additive, was calculated:
[formula] • where • X=percent activity using active herbicide A at an application rate a; • Y=percent activity using active herbicide B (e.g. mesotrione) at an application rate b; • E=expected activity (in %) by A+B at application rates a+b.
If the value found experimentally is higher than the value E calculated according to Colby, a synergistic effect is present.
Evaluation was carried out using a scale from 0 to 100. 100 means no emergence of the plants, or complete destruction of at least the above-ground parts, and 0 means no damage or normal course of growth. A good herbicidal activity is given at values of at least 70, and very good herbicidal activity is given at values of at least 85.
Post-Emergence Application of Herbicide A-1 (A-1), Mesotrione (B) and Pyroxasulfone (C-19)
Herbicide A-1 (342 g/l), mesotrione (100 g/l) and pyroxasulfone (500 g/l) were, together with addition of 0.5 v/v % MSO (methylated sed oil) as adjuvant, formulated in water as distribution medium (water volume 200 l/ha) and sprayed with commercial flat fan nozzles.

Panicum dichotomiflorum = experiment: Example 1 post-emergence greenhouse trial, PANDI; conditions: growth stage 13, 21 DAT, g ai/ha: A-1 4, B 62.5
Experimental: (§2) In the examples below, using the method of S. R. Colby (1967) “Calculating synergistic and antagonistic responses of herbicide combinations”, Weeds 15, p. 22ff., the value E, which is expected if the activity of the individual active compounds is only additive, was calculated: [formula] • where • X=percent activity using active herbicide A at an application rate a; • Y=percent activity using active herbicide B (e.g. mesotrione) at an application rate b; • E=expected activity (in %) by A+B at application rates a+b. If the value found experimentally is higher than the value E calculated according to Colby, a synergistic effect is present. The culture containers used were plastic pots containing loamy sand with approximately 3.0% of humus as substrate. The seeds of the test plants were sown separately for each species. For the post-emergence treatment, the test plants were grown to a plant height of from 3 to 15 cm, depending on the plant habit, and only then treated with the active compounds which had been suspended or emulsified in water. To this end, the test plants were either sown directly, and grown in the same containers, or they were first grown separately as seedlings and transplanted into the test containers a few days prior to treatment. […] During this time, the plants were tended and their response to the individual treatments was evaluated. […]

Alopercurus myosuroides = experiment: Example 1 post-emergence greenhouse trial, ALOMY; conditions: growth stage 13, 21 DAT, g ai/ha: A-1 4, B 62.5
Experimental: as §2

[1] = height 27-33 cm, 7 DAT, g ai/ha: A-1 12.5, B 105
[2] = height 27-33 cm, 7 DAT, g ai/ha: A-1 12.5, B 210
[3] = height 27-33 cm, 7 DAT, g ai/ha: A-1 18, B 105
[4] = height 27-33 cm, 7 DAT, g ai/ha: A-1 18, B 210
[5] = height 27-33 cm, 21 DAT, g ai/ha: A-1 12.5, B 105
[6] = height 27-33 cm, 21 DAT, g ai/ha: A-1 12.5, B 210
[7] = height 27-33 cm, 21 DAT, g ai/ha: A-1 18, B 105
[8] = height 27-33 cm, 21 DAT, g ai/ha: A-1 18, B 210
[9] = height 27-33 cm, 28 DAT, g ai/ha: A-1 12.5, B 105
[10] = height 27-33 cm, 28 DAT, g ai/ha: A-1 12.5, B 210
[11] = height 27-33 cm, 28 DAT, g ai/ha: A-1 18, B 105
[12] = height 27-33 cm, 28 DAT, g ai/ha: A-1 18, B 210
[13] = height 40-60 cm, 7 DAT, g ai/ha: A-1 12.5, B 105
[14] = height 40-60 cm, 7 DAT, g ai/ha: A-1 12.5, B 210
[15] = height 40-60 cm, 7 DAT, g ai/ha: A-1 18, B 105
[16] = height 40-60 cm, 7 DAT, g ai/ha: A-1 18, B 210
[17] = 7 DAT, g ai/ha: A-1 12.5, B 105
[18] = 7 DAT, g ai/ha: A-1 12.5, B 210

Row | Structure (SMILES) | % herbicidal activity (Zea mays; [1]) [%] | % herbicidal activity (Zea mays; [2]) [%] | % herbicidal activity (Zea mays; [3]) [%] | % herbicidal activity (Zea mays; [4]) [%] | % herbicidal activity (Zea mays; [5]) [%] | % herbicidal activity (Zea mays; [6]) [%] | % herbicidal activity (Zea mays; [7]) [%] | % herbicidal activity (Zea mays; [8]) [%] | % herbicidal activity (Zea mays; [9]) [%] | % herbicidal activity (Zea mays; [10]) [%] | % herbicidal activity (Zea mays; [11]) [%] | % herbicidal activity (Zea mays; [12]) [%] | % herbicidal activity (Zea mays; [13]) [%] | % herbicidal activity (Zea mays; [14]) [%] | % herbicidal activity (Zea mays; [15]) [%] | % herbicidal activity (Zea mays; [16]) [%] | % herbicidal activity (Lolium multiflorum; [17]) [%] | % herbicidal activity (Lolium multiflorum; [18]) [%] | % herbicidal activity (Lolium multiflorum; 7 DAT, g ai/ha: A-1 18, B 105) [%] | % herbicidal activity (Lolium multiflorum; 7 DAT, g ai/ha: A-1 18, B 210) [%] | also measured
1 | CS(=O)(=O)c1ccc(C(=O)C2C(=O)CCCC2=O)c([N+](=O)[O-])c1 [B, mesotrione] | 0 | 0 | 0 | 0 | 0 | 0 | 0 | 0 | 0 | 0 | 0 | 0 | 5 | 5 | 5 | 5 | 30 | 30 | 30 | 30 | % herbicidal activity (Lolium multiflorum; 21 DAT, g ai/ha: A-1 18, B 210): 30%; % herbicidal activity (Lolium multiflorum; 28 DAT, g ai/ha: A-1 18, B 210): 30%; % herbicidal activity (Commelina benghalensis): 90%; % herbicidal activity (Panicum dichotomiflorum): 0%; % herbicidal activity (Alopercurus myosuroides): 0%
2 | CCOC(=O)COc1ccccc1Oc1nc(-n2c(=O)cc(C(F)(F)F)n(C)c2=O)c(F)cc1Cl [A-1, ethyl 2-[2-[[3-chloro-5-fluoro-6-[3-methyl-2,6-dioxo-4-(trifluoromethyl)pyrimidin-1-yl]-2-pyridyl]oxy]phenoxy]acetate] | 30 | 45 | 40 | 55 | 80 | 85 | 90 | 80 | 80 | 80 | 88 | 85 | 85 | 85 | 85 | 85 | 60 | 60 | 65 | 70 | % herbicidal activity (Lolium multiflorum; 21 DAT, g ai/ha: A-1 18, B 210): 40%; % herbicidal activity (Lolium multiflorum; 28 DAT, g ai/ha: A-1 18, B 210): 40%; % herbicidal activity (Commelina benghalensis): 80%; % herbicidal activity (Panicum dichotomiflorum): 95%; % herbicidal activity (Alopercurus myosuroides): 85%
